Values quoted from earlier work as cited in US20150182489A1, “GOLD (III) COMPOUNDS AND USE FOR TREATING CANCER” (King Abdulaziz City for Science and Technology, priority 2013, published 2015).
Where two headings read alike, the source gives them in different places.

COc1cccc2c1C(=O)c1c(O)c3c(c(O)c1C2=O)C[C@@](O)(C(=O)CO)C[C@@H]3O[C@H]1C[C@H](N)[C@H](O)[C@H](C)O1 [doxorubicin]
hepatotoxicity relative to 5-FU treatment (rats liver; rats liver (El-Sayyad et al)): increased hepatoxicity in comparison to 5-FU treatment

N.N.[Cl][Pt][Cl] [cisplatin, cis-diamminedichloroplatinum(II)]
renal histopathology (rats; rats, 0.4 mg/kg intraperitoneally for 8 weeks (Ravindra et al)): marked proximal tubular dilation and desquamation along with acute tubular necrosis | renal histopathology (rats; rats, 15 mg/kg of body weight intraperitoneally (Hanigan et al)): grade 4 tubular necrosis | renal histopathology (rats; single intraperitoneal dose of 7.5 mg/kg (Atasayara et al)): remarkable epithelial vacuolation, necrosis, and desquamation of cells with protein casts in renal tubules | hepatic histopathology (rats liver; 10 mg/kg (Avci et al)): sinusoidal congestion, hydropic and vacuolar degeneration, extensive disorganization in hepatocytes, and significant fibrosis around central venules and expanded periportal areas | hepatic histopathology (rats liver; single intraperitoneal 6.5 mg/kg dose (Kart et al)): moderate to severe hydropic degeneration in centrilobular zones extending towards the portal region
